Assays:
windgrass = assay: Test Example 5: herbicidal effect by foliage application, plastic box (Table 20, symbol L); format: in vivo, windgrass (Apera spica-venti); details: foliage application; for effect on windgrass (L): 3 weeks after application; for L: windgrass, herbicidal effect (criteria 0-5): AAH 320 g/ha, evaluated three weeks after application
Summary of the method: (§1)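 Sow seeds spot-wise in sterilized diluvial soil; cover with ~1.5 cm soil. Grow 14 days in greenhouse, 25° C. to 30° C. Spray foliage with emulsion diluted to predetermined amount. Rate effect after 3 weeks.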

lambsquarters [1] = assay: Test Example 5: herbicidal effect by foliage application, plastic box (Table 20, symbol O); format: in vivo, lambsquarters (Chenopodium album); details: foliage application; for effect on lambsquarters (O): 3 weeks after application; for O: lambsquarters, herbicidal effect (criteria 0-5): AAH 320 g/ha, evaluated three weeks after application
Summary of the method: as §1

velvetleaf [2] = assay: Test Example 4: herbicidal effect by soil treatment (Table 19, symbol M); format: in vivo, velvetleaf (Abutilon theophrasti); details: for M: velvetleaf, herbicidal effect rating: AAH 320 g/ha
Summary of the method: (§2)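 Applied as a water-diluted emulsion, the compound was sprayed onto soil covering newly sown seeds. Evaluation came three weeks after application, in a greenhouse held at 25° C. to 30° C.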

chickweed [3] = assay: Test Example 4: herbicidal effect by soil treatment (Table 19, symbol P); format: in vivo, common chickweed (Stellaria media); details: for P: chickweed, herbicidal effect rating: AAH 320 g/ha
Summary of the method: as §2

barnyard grass = assay: Test Example 4: herbicidal effect by soil treatment (Table 19, symbol H); format: in vivo, barnyard grass (Echinochloa crus-galli)
Summary of the method: as §2

velvetleaf [4] = assay: Test Example 5: herbicidal effect by foliage application, plastic box (Table 20, symbol M); format: in vivo, velvetleaf (Abutilon theophrasti); details: foliage application; for effect on velvetleaf (M): 3 weeks after application; for M: velvetleaf, herbicidal effect (criteria 0-5): AAH 320 g/ha, evaluated three weeks after application
Summary of the method: as §1

oval-leafed pondweed = assay: Test Example 1: herbicidal activity, application before weed generation under submerged conditions (Table 16, symbol C); format: in vivo, oval-leafed pondweed (Monochoria vaginalis); details: 320 g/ha applied herbicide
Summary of the method: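 Submerged Wagner pots (alluvial soil, 4 cm water) sown with weed seeds and planted with 2.5-leaf rice seedlings; emulsifiable concentrate diluted in water applied to water surface on sowing day. Held in greenhouse at 25-30 °C; injury scored 0-5 by herbicidal rate after three weeks.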

wild oat = assay: Test Example 4: herbicidal effect by soil treatment (Table 19, symbol I); format: in vivo, wild oat (Avena fatua); details: for I: wild oat, herbicidal effect rating: AAH 320 g/ha
Summary of the method: as §2

Japanese bulrush = assay: Test Example 2: herbicidal activity, application during weed generation under submerged conditions (Table 17, symbol B); format: in vivo, Japanese bulrush (Schoenoplectus juncoides); details: AAH 320 g/ha; application during weed generation, submerged conditions
Summary of the method: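 Steps: fill Wagner pots with alluvial soil; add water to give 4 cm depth; sow the species mixed; grow under glass at 25–30° C.; at 1–2 leaves apply water-diluted emulsion formulation to the water surface at a fixed herbicide amount; score after 3 weeks.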

Italian ryegrass = assay: Test Example 5: herbicidal effect by foliage application, plastic box (Table 20, symbol K); format: in vivo, Italian ryegrass (Lolium multiflorum); details: foliage application; for effect on Italian ryegrass (K): 3 weeks after application; for K: Italian ryegrass, herbicidal effect (criteria 0-5): AAH 320 g/ha, evaluated three weeks after application
Summary of the method: as §1

blackgrass = assay: Test Example 4: herbicidal effect by soil treatment (Table 19, symbol J); format: in vivo, blackgrass (Alopecurus myosuroides); details: for J: blackgrass, herbicidal effect rating: AAH 320 g/ha
Summary of the method: as §2

southern crabgrass = assay: Test Example 4: herbicidal effect by soil treatment (Table 19, symbol F); format: in vivo, southern crabgrass (Digitaria ciliaris); details: for F: southern crabgrass, herbicidal effect rating: AAH 320 g/ha
Summary of the method: as §2

lambsquarters [5] = assay: Test Example 4: herbicidal effect by soil treatment (Table 19, symbol O); format: in vivo, lambsquarters (Chenopodium album); details: for O: lambsquarters, herbicidal effect rating: AAH 320 g/ha
Summary of the method: as §2

green foxtail = assay: Test Example 4: herbicidal effect by soil treatment (Table 19, symbol G); format: in vivo, green foxtail (Setaria viridis); details: for G: green foxtail, herbicidal effect rating: AAH 320 g/ha
Summary of the method: as §2

persian speedwell = assay: Test Example 4: herbicidal effect by soil treatment (Table 19, symbol R); format: in vivo, Persian speedwell (Veronica persica)
Summary of the method: as §2

chickweed [6] = assay: Test Example 5: herbicidal effect by foliage application, plastic box (Table 20, symbol P); format: in vivo, common chickweed (Stellaria media); details: foliage application; for P: chickweed, herbicidal effect (criteria 0-5): AAH 320 g/ha, evaluated three weeks after application
Summary of the method: as §1

redroot pigweed = assay: Test Example 5: herbicidal effect by foliage application, plastic box (Table 20, symbol N); format: in vivo, redroot pigweed (Amaranthus retroflexus); details: foliage application; for N: redroot pigweed, herbicidal effect (criteria 0-5): AAH 320 g/ha, evaluated three weeks after application
Summary of the method: as §1

[7] = 320 g/ha, three weeks after application
[8] = amount of applied herbicide 320 g/ha

SMILES | effect on windgrass (L) (windgrass; 320 g/ha) | effect on lambsquarters (O) (lambsquarters [1]; 320 g/ha) | M: velvetleaf, herbicidal effect rating (velvetleaf [2]) | P: chickweed, herbicidal effect rating (chickweed [3]) | effect on velvetleaf (M) (velvetleaf [4]; 320 g/ha) | Herbicidal effect on C: oval-leafed pondweed (grade 0-5) (oval-leafed pondweed) | I: wild oat, herbicidal effect rating (wild oat) | herbicidal effect rating, B: Japanese bulrush (Japanese bulrush) | effect on Italian ryegrass (K) (Italian ryegrass; 320 g/ha) | J: blackgrass, herbicidal effect rating (blackgrass) | F: southern crabgrass, herbicidal effect rating (southern crabgrass) | O: lambsquarters, herbicidal effect rating (lambsquarters [5]) | G: green foxtail, herbicidal effect rating (green foxtail) | P: chickweed, herbicidal effect (criteria 0-5) (chickweed [6]) | L: windgrass, herbicidal effect (criteria 0-5) (windgrass) | O: lambsquarters, herbicidal effect (criteria 0-5) (lambsquarters [1]) | herbicidal effect on M: velvetleaf (velvetleaf [2]; [8]) | herbicidal effect on P: chickweed (chickweed [3]; [8]) | N: redroot pigweed, herbicidal effect (criteria 0-5) (redroot pigweed) | herbicidal effect on H: barnyard grass (barnyard grass; [8]) | also measured
C=CCC(C)Oc1ccc(-c2sc3ccccc3c2-c2c(O)c(C)nn(C)c2=O)cc1 (racemic) [1-213] | 5 (Herbicidal rate of 90% or more (almost completely withered)) | 5 (Herbicidal rate of 90% or more (almost completely withered)) | 0 (Herbicidal rate of 5% or less (almost no effect)) | 3 (Herbicidal rate of 40% or more and less than 70%) | 5 (Herbicidal rate of 90% or more (almost completely withered)) | 5 (Herbicidal rate of 90% or more (almost completely withered)) | 0 (Herbicidal rate of 5% or less (almost no effect)) | 3 (Herbicidal rate of 40% or more and less than 70%) | 4 (Herbicidal rate of 70% or more and less than 90%) | 1 (Herbicidal rate of 5% or more and less than 20%) | 0 (Herbicidal rate of 5% or less (almost no effect)) | 0 (Herbicidal rate of 5% or less (almost no effect)) | 0 (Herbicidal rate of 5% or less (almost no effect)) |  |  |  |  |  |  |  | H: barnyard grass, herbicidal effect rating (barnyard grass; AAH 320 g/ha): 0 (Herbicidal rate of 5% or less (almost no effect))
C#CC(C)Oc1ccc(-c2sc3ccccc3c2-c2c(O)c(C)nn(C)c2=O)cc1 (racemic) [1-217] | 5 (Herbicidal rate of 90% or more (almost completely withered)) | 5 (Herbicidal rate of 90% or more (almost completely withered)) | 0 (Herbicidal rate of 5% or less (almost no effect)) | 5 (Herbicidal rate of 90% or more (almost completely withered)) | 5 (Herbicidal rate of 90% or more (almost completely withered)) | 3 (Herbicidal rate of 40% or more and less than 70%) | 0 (Herbicidal rate of 5% or less (almost no effect)) | 3 (Herbicidal rate of 40% or more and less than 70%) | 5 (Herbicidal rate of 90% or more (almost completely withered)) | 0 (Herbicidal rate of 5% or less (almost no effect)) | 0 (Herbicidal rate of 5% or less (almost no effect)) | 2 (Herbicidal rate of 20% or more and less than 40%) | 3 (Herbicidal rate of 40% or more and less than 70%) |  |  |  |  |  |  |  | R: persian speedwell, herbicidal effect rating (persian speedwell; AAH 320 g/ha): 5 (Herbicidal rate of 90% or more (almost completely withered))
CC(=O)c1ccc(-c2sc3ccccc3c2-c2c(O)c(C)nn(C)c2=O)cc1 [1-041] |  |  |  |  |  | 4 (Herbicidal rate of 70% or more and less than 90%) |  | 3 (Herbicidal rate of 40% or more and less than 70%) |  |  |  |  |  |  |  |  |  |  |  |  | herbicidal effect grade, P: chickweed (chickweed [6]; [7]): 5 (Herbicidal rate of 90% or more (almost completely withered)); herbicidal effect grade, L: windgrass (windgrass; [7]): 4 (Herbicidal rate of 70% or more and less than 90%); herbicidal effect grade, O: lambsquarters (lambsquarters [1]; [7]): 3 (Herbicidal rate of 40% or more and less than 70%); herbicidal effect rating, M: velvetleaf (velvetleaf [2]; [8]): 3 (Herbicidal rate of 40% or more and less than 70%); herbicidal effect rating, P: chickweed (chickweed [3]; [8]): 0 (Herbicidal rate of 5% or less (almost no effect)); herbicidal effect grade, N: redroot pigweed (redroot pigweed; [7]): 5 (Herbicidal rate of 90% or more (almost completely withered)); herbicidal effect rating, H: barnyard grass (barnyard grass; [8]): 0 (Herbicidal rate of 5% or less (almost no effect)); herbicidal effect grade, M: velvetleaf (velvetleaf [4]; [7]): 5 (Herbicidal rate of 90% or more (almost completely withered)); herbicidal effect rating, I: wild oat (wild oat; [8]): 1 (Herbicidal rate of 5% or more and less than 20%); herbicidal effect grade, K: Italian ryegrass (Italian ryegrass; [7]): 5 (Herbicidal rate of 90% or more (almost completely withered)); herbicidal effect rating, J: blackgrass (blackgrass; [8]): 0 (Herbicidal rate of 5% or less (almost no effect)); herbicidal effect rating, F: southern crabgrass (southern crabgrass; [8]): 2 (Herbicidal rate of 20% or more and less than 40%); herbicidal effect rating, O: lambsquarters (lambsquarters [5]; [8]): 5 (Herbicidal rate of 90% or more (almost completely withered)); herbicidal effect rating, G: green foxtail (green foxtail; [8]): 3 (Herbicidal rate of 40% or more and less than 70%)
Cc1nn(C)c(=O)c(-c2c(-c3ccc(OC(F)F)cc3)sc3ccc(F)cc23)c1OC(=O)c1ccco1 [2-287] |  |  |  |  |  | 4 (Herbicidal rate of 70% or more and less than 90%) |  | 3 (Herbicidal rate of 40% or more and less than 70%) |  |  |  |  |  | 5 (Herbicidal rate of 90% or more (almost completely withered)) | 4 (Herbicidal rate of 70% or more and less than 90%) | 5 (Herbicidal rate of 90% or more (almost completely withered)) | 5 (Herbicidal rate of 90% or more (almost completely withered)) | 4 (Herbicidal rate of 70% or more and less than 90%) | 5 (Herbicidal rate of 90% or more (almost completely withered)) | 5 (Herbicidal rate of 90% or more (almost completely withered)) | M: velvetleaf, herbicidal effect (criteria 0-5) (velvetleaf [4]): 5 (Herbicidal rate of 90% or more (almost completely withered)); herbicidal effect on I: wild oat (wild oat; [8]): 0 (Herbicidal rate of 5% or less (almost no effect)); K: Italian ryegrass, herbicidal effect (criteria 0-5) (Italian ryegrass): 5 (Herbicidal rate of 90% or more (almost completely withered)); herbicidal effect on R: persian speedwell (persian speedwell; [8]): 5 (Herbicidal rate of 90% or more (almost completely withered)); herbicidal effect on F: southern crabgrass (southern crabgrass; [8]): 4 (Herbicidal rate of 70% or more and less than 90%); herbicidal effect on O: lambsquarters (lambsquarters [5]; [8]): 5 (Herbicidal rate of 90% or more (almost completely withered)); herbicidal effect on G: green foxtail (green foxtail; [8]): 5 (Herbicidal rate of 90% or more (almost completely withered))
Cc1nn(C)c(=O)c(-c2c(-c3ccc(O)cc3)sc3ccc(F)cc23)c1O [2-337] |  |  |  |  |  | 3 (Herbicidal rate of 40% or more and less than 70%) |  | 2 (Herbicidal rate of 20% or more and less than 40%) |  |  |  |  |  | 5 (Herbicidal rate of 90% or more (almost completely withered)) | 0 (Herbicidal rate of 5% or less (almost no effect)) | 3 (Herbicidal rate of 40% or more and less than 70%) | 0 (Herbicidal rate of 5% or less (almost no effect)) | 3 (Herbicidal rate of 40% or more and less than 70%) | 4 (Herbicidal rate of 70% or more and less than 90%) | 0 (Herbicidal rate of 5% or less (almost no effect)) | M: velvetleaf, herbicidal effect (criteria 0-5) (velvetleaf [4]): 3 (Herbicidal rate of 40% or more and less than 70%); herbicidal effect on I: wild oat (wild oat; [8]): 0 (Herbicidal rate of 5% or less (almost no effect)); K: Italian ryegrass, herbicidal effect (criteria 0-5) (Italian ryegrass): 0 (Herbicidal rate of 5% or less (almost no effect)); herbicidal effect on J: blackgrass (blackgrass; [8]): 0 (Herbicidal rate of 5% or less (almost no effect)); herbicidal effect on F: southern crabgrass (southern crabgrass; [8]): 0 (Herbicidal rate of 5% or less (almost no effect)); herbicidal effect on O: lambsquarters (lambsquarters [5]; [8]): 0 (Herbicidal rate of 5% or less (almost no effect)); herbicidal effect on G: green foxtail (green foxtail; [8]): 0 (Herbicidal rate of 5% or less (almost no effect))
